These results are taken from US12065442B2, “Tropomyosin receptor kinase (TRK) degradation compounds and methods of use” (Cullgen (Shanghai), Inc., priority 2018, dated 2024).

The structures appear in SMILES notation. Where only a bound is given, the exact number is not on record here.

For the first test, the system named is KM12 cells. Description: Cell viability assay (CellTiter-Glo) in KM12 cells. The format is cell-based. The following applies: Homo sapiens, 72 h; Table 2; KM12 cell viability, CellTiter-Glo, 3 days; read-out: IC50. (Cellular ATP, detected with luciferase, serves as a proxy for viable cell number.)
In the case of `O=C1CCC(N2C(=O)c3cccc(NCCOCCOCCC(=O)N4CCN(c5ccc(C(=O)Nc6n[nH]c7ccc(Cc8cc(F)cc(F)c8)cc67)c(NC6CCOCC6)c5)CC4)c3C2=O)C(=O)N1` (stereo not shown) [CPD-032, N-(5-(3,5-Difluorobenzyl)-1H-indazol-3-yl)-4-(4-(3-(2-(2-((2-(2,6-dioxopiperidin-3-yl)-1,3-dioxoisoindolin-4-yl)amino)ethoxy)ethoxy)propanoyl)piperazin-1-yl)-2-((tetrahydro-2H-pyran-4-yl)amino)benzamide], the IC50 (commonly the concentration that inhibits the measured activity by half) is 0.0054 µM.

In the case of `Cc1ncsc1-c1ccc(CNC(=O)[C@@H]2C[C@@H](O)CN2C(=O)[C@@H](NC(=O)COCCOCCOCCOCCOCC(=O)N2CCN(c3ccc(C(=O)Nc4n[nH]c5ccc(Cc6cc(F)cc(F)c6)cc45)c(NC4CCOCC4)c3)CC2)C(C)(C)C)cc1` [CPD-040, (2S,4R)-1-((S)-2-(tert-butyl)-20-(4-(4-((5-(3,5-Difluorobenzyl)-1H-indazol-3-yl)carbamoyl)-3-((tetrahydro-2H-pyran-4-yl)amino)phenyl)piperazin-1-yl)-4,20-dioxo-6,9,12,15,18-pentaoxa-3-azaicosanoyl)-4-hydroxy-N-(4-(4-methylthiazol-5-yl)benzyl)pyrrolidine-2-carboxamide], the IC50 amounted to 0.6 µM.

For `Cc1ncsc1-c1ccc(CNC(=O)[C@@H]2C[C@@H](O)CN2C(=O)[C@@H](NC(=O)COCC(=O)N2CCN(c3cccc(-c4cnc5ccc(N6CCC[C@@H]6c6cccc(F)c6)nn45)n3)CC2)C(C)(C)C)cc1` [CPD-008, (2S,4R)-1-((S)-2-(2-(2-(4-(6-(6-((R)-2-(3-Fluorophenyl)pyrrolidin-1-yl)imidazo[1,2-b]pyridazin-3-yl)pyridin-2-yl)piperazin-1-yl)-2-oxoethoxy)acetamido)-3,3-dimethylbutanoyl)-4-hydroxy-N-(4-(4-methylthiazol-5-yl)benzyl)pyrrolidine-2-carboxamide], the IC50 is > 1 µM.

Take `Cc1ncsc1-c1ccc(CNC(=O)[C@@H]2C[C@@H](O)CN2C(=O)[C@@H](NC(=O)CNC(=O)CN2CCN(c3ccc(C(=O)Nc4n[nH]c5ccc(Cc6cc(F)cc(F)c6)cc45)c(NC4CCOCC4)c3)CC2)C(C)(C)C)cc1` [CPD-063, (2S,4R)-1-((S)-2-(2-(2-(4-(4-((5-(3,5-Difluorobenzyl)-1H-indazol-3-yl)carbamoyl)-3-((tetrahydro-2H-pyran-4-yl)amino)phenyl)piperazin-1-yl)acetamido)acetamido)-3,3-dimethylbutanoyl)-4-hydroxy-N-(4-(4-methylthiazol-5-yl)benzyl)pyrrolidine-2-carboxamide]: the IC50 was > 1 µM.

On to `O=C1CCC(N2C(=O)c3cccc(NCCOCCOCCOCCOCCOCCC(=O)N4CCN(c5ccc(C(=O)Nc6n[nH]c7ccc(Cc8cc(F)cc(F)c8)cc67)c(NC6CCOCC6)c5)CC4)c3C2=O)C(=O)N1` (stereo not shown) [CPD-054, N-(5-(3,5-difluorobenzyl)-1H-indazol-3-yl)-4-(4-(1-((2-(2,6-dioxopiperidin-3-yl)-1,3-dioxoisoindolin-4-yl)amino)-3,6,9,12,15-pentaoxaoctadecan-18-oyl)piperazin-1-yl)-2-((tetrahydro-2H-pyran-4-yl)amino)benzamide], for which the half-inhibitory concentration (IC50) is 0.013 µM.

Take `O=C1CCC(N2C(=O)c3cccc(NCCCCC(=O)N4CCN(c5cccc(-c6cnc7ccc(N8CCC[C@@H]8c8cccc(F)c8)nn67)n5)CC4)c3C2=O)C(=O)N1` (stereo partly drawn) [CPD-014, 2-(2,6-Dioxopiperidin-3-yl)-4-((5-(4-(6-(6-((R)-2-(3-fluorophenyl)pyrrolidin-1-yl)imidazo[1,2-b]pyridazin-3-yl)pyridin-2-yl)piperazin-1-yl)-5-oxopentyl)amino)isoindoline-1,3-dione]: the IC50 came out at 0.0079 µM.

Consider `O=C1CCC(N2C(=O)c3cccc(NCCOCCOCCOCCOCCOCCC(=O)N4CCN(c5cccc(-c6cnc7ccc(N8CCC[C@@H]8c8cccc(F)c8)nn67)n5)CC4)c3C2=O)C(=O)N1` (stereo partly drawn) [CPD-025, 2-(2,6-Dioxopiperidin-3-yl)-4-((18-(4-(6-(6-((R)-2-(3-fluorophenyl)pyrrolidin-1-yl)imidazo[1,2-b]pyridazin-3-yl)pyridin-2-yl)piperazin-1-yl)-18-oxo-3,6,9,12,15-pentaoxaoctadecyl)amino)isoindoline-1,3-dione], for which the concentration for half-maximal inhibition (IC50) was 0.0167 µM.

For the compound `Cc1ncsc1-c1ccc(CNC(=O)[C@@H]2C[C@@H](O)CN2C(=O)[C@@H](NC(=O)CCCCCC(=O)N2CCN(c3ccc(C(=O)Nc4n[nH]c5ccc(Cc6cc(F)cc(F)c6)cc45)c(NC4CCOCC4)c3)CC2)C(C)(C)C)cc1` [CPD-047, (2S,4R)-1-((S)-2-(7-(4-(4-((5-(3,5-difluorobenzyl)-1H-indazol-3-yl)carbamoyl)-3-((tetrahydro-2H-pyran-4-yl)amino)phenyl)piperazin-1-yl)-7-oxoheptanamido)-3,3-dimethylbutanoyl)-4-hydroxy-N-(4-(4-methylthiazol-5-yl)benzyl)pyrrolidine-2-carboxamide], the IC50 stood at 0.094 µM.

The same test, now with this note: Homo sapiens, 72 h; Table 3; KM12 cell viability, CellTiter-Glo, 3 days; read-out: IC50.
Turning to `O=C(CN1CCN(c2cccc(-c3cnc4ccc(N5CCC[C@@H]5c5cccc(F)c5)nn34)n2)CC1)NCCCCCCNc1cccc2c1C(=O)N(C1CCC(=O)NC1=O)C2=O` (stereo partly drawn) [TR-111, N-(6-((2-(2,6-dioxopiperidin-3-yl)-1,3-dioxoisoindolin-4-yl)amino)hexyl)-2-(4-(6-(6-((R)-2-(3-fluorophenyl)pyrrolidin-1-yl)imidazo[1,2-b]pyridazin-3-yl)pyridin-2-yl)piperazin-1-yl)acetamide], the 50% inhibitory concentration (IC50) amounted to 0.0197 µM.

For `OC1CCN(c2cc(-c3cccc(-c4cnc5ccc(N6CCC[C@@H]6c6cccc(F)c6)nn45)n3)ccn2)CC1` [GNF-8625, reference compound], the concentration for half-maximal inhibition (IC50) is 0.0467 µM.

For `O=C1CCC(N2C(=O)c3ccc(/C=C/C(=O)N4CCN(c5cccc(-c6cnc7ccc(N8CCC[C@@H]8c8cccc(F)c8)nn67)n5)CC4)cc3C2=O)C(=O)N1` (stereo partly drawn) [TR-195, 2-(2,6-Dioxopiperidin-3-yl)-5-((E)-3-(4-(6-(6-((R)-2-(3-fluorophenyl)pyrrolidin-1-yl)imidazo[1,2-b]pyridazin-3-yl)pyridin-2-yl)piperazin-1-yl)-3-oxoprop-1-en-1-yl)isoindoline-1,3-dione], the IC50 is 0.0236 µM.

On to `O=C(CN1CCN(c2ccc(C(=O)Nc3n[nH]c4ccc(Cc5cc(F)cc(F)c5)cc34)c(NC3CCOCC3)c2)CC1)NCCOCCNc1ccc2c(c1)C(=O)N(C1CCC(=O)NC1=O)C2=O` (stereo not shown) [TR-161, N-(5-(3,5-Difluorobenzyl)-1H-indazol-3-yl)-4-(4-(2-((2-(2-((2-(2,6-dioxopiperidin-3-yl)-1,3-dioxoisoindolin-5-yl)amino)ethoxy)ethyl)amino)-2-oxoethyl)piperazin-1-yl)-2-((tetrahydro-2H-pyran-4-yl)amino)benzamide], for which the IC50 stood at 0.0047 µM.

Take `O=C1CCC(N2Cc3ccc(C#CCN4CCN(c5cccc(-c6cnc7ccc(N8CCC[C@@H]8c8cccc(F)c8)nn67)n5)CC4)cc3C2=O)C(=O)N1` (stereo partly drawn) [TR-187, 3-(6-(3-(4-(6-(6-((R)-2-(3-fluorophenyl)pyrrolidin-1-yl)imidazo[1,2-b]pyridazin-3-yl)pyridin-2-yl)piperazin-1-yl)prop-1-yn-1-yl)-1-oxoisoindolin-2-yl)piperidine-2,6-dione]: the IC50 was found to be 0.0186 µM.

With `O=C1CCC(N2C(=O)c3ccc(NCCOCCOCCOCCC(=O)N4CCN(c5ccc(C(=O)Nc6n[nH]c7ccc(Cc8cc(F)cc(F)c8)cc67)c(NC6CCOCC6)c5)CC4)cc3C2=O)C(=O)N1` (stereo not shown) [TR-146, N-(5-(3,5-Difluorobenzyl)-1H-indazol-3-yl)-4-(4-(3-(2-(2-(2-((2-(2,6-dioxopiperidin-3-yl)-1,3-dioxoisoindolin-5-yl)amino)ethoxy)ethoxy)ethoxy)propanoyl)piperazin-1-yl)-2-((tetrahydro-2H-pyran-4-yl)amino)benzamide], the IC50 is 0.0042 µM.

With `O=C1CCC(N2C(=O)c3ccc(NCCCCC(=O)N4CCN(c5ccc(C(=O)Nc6n[nH]c7ccc(Cc8cc(F)cc(F)c8)cc67)c(NC6CCOCC6)c5)CC4)cc3C2=O)C(=O)N1` (stereo not shown) [TR-142, N-(5-(3,5-Difluorobenzyl)-1H-indazol-3-yl)-4-(4-(5-((2-(2,6-dioxopiperidin-3-yl)-1,3-dioxoisoindolin-5-yl)amino)pentanoyl)piperazin-1-yl)-2-((tetrahydro-2H-pyran-4-yl)amino)benzamide], the IC50 stood at 0.0034 µM.

As to `O=C(CN1CCN(c2cccc(-c3cnc4ccc(N5CCC[C@@H]5c5cccc(F)c5)nn34)n2)CC1)NCCCCCCCNc1ccc2c(c1)C(=O)N(C1CCC(=O)NC1=O)C2=O` (stereo partly drawn) [TR-126, N-(7-((2-(2,6-dioxopiperidin-3-yl)-1,3-dioxoisoindolin-5-yl)amino)heptyl)-2-(4-(6-(6-((R)-2-(3-fluorophenyl)pyrrolidin-1-yl)imidazo[1,2-b]pyridazin-3-yl)pyridin-2-yl)piperazin-1-yl)acetamide], the IC50 was determined as 0.0125 µM.

`O=C1CCC(N2C(=O)c3ccc(N4CCN(c5cccc(-c6cnc7ccc(N8CCC[C@@H]8c8cccc(F)c8)nn67)n5)CC4)cc3C2=O)C(=O)N1` (stereo partly drawn) [TR-170, 2-(2,6-Dioxopiperidin-3-yl)-5-(4-(6-(6-((R)-2-(3-fluorophenyl)pyrrolidin-1-yl)imidazo[1,2-b]pyridazin-3-yl)pyridin-2-yl)piperazin-1-yl)isoindoline-1,3-dione]: the IC50 was determined as 0.0151 µM.

Staying with this test, now noted: Homo sapiens, 72 h; Table 4; KM12 cell viability, CellTiter-Glo, 3 days; read-out: IC50.
In the case of `O=C1CCC(N2C(=O)c3ccc(N4CC(C(=O)N5CCN(c6cccc(-c7cnc8ccc(N9CCC[C@@H]9c9cccc(F)c9)nn78)n6)CC5)C4)cc3C2=O)C(=O)N1` (stereo partly drawn) [TR-211, 2-(2,6-Dioxopiperidin-3-yl)-5-(3-(4-(6-(6-((R)-2-(3-fluorophenyl)pyrrolidin-1-yl)imidazo[1,2-b]pyridazin-3-yl)pyridin-2-yl)piperazine-1-carbonyl)azetidin-1-yl)isoindoline-1,3-dione], the half-maximal inhibitory concentration (IC50) is 0.002 µM.

Take `O=C1CCC(N2C[C@H](c3ccc(C#CCN4CCN(c5cccc(-c6cnc7ccc(N8CCC[C@@H]8c8cccc(F)c8)nn67)n5)CC4)cc3)OC2=O)C(=O)N1` (stereo partly drawn) [TR-224, 3-((S)-5-(4-(3-(4-(6-(6-((R)-2-(3-Fluorophenyl)pyrrolidin-1-yl)imidazo[1,2-b]pyridazin-3-yl)pyridin-2-yl)piperazin-1-yl)prop-1-yn-1-yl)phenyl)-2-oxooxazolidin-3-yl)piperidine-2,6-dione]: the IC50 turned out to be 0.0099 µM.
